Measurements as given in PMC10266688 (PLOS ONE, 2023).
Where “and” joins values, the source holds several entries; their conditions need not be identical. Identical values can stand only once.

Key:
[1] = Tissue distribution in CD1 mice, LC-MS/MS; type: in vivo, mouse; conditions: 40 mg/kg IV
Experimental: Tissue homogenates were prepared at a concentration of 200 mg/mL in PBS. After vortex-mixing and centrifuging for 5 min at 2700 rpm. […] Mobile phase A was water containing 0.1% formic acid, and mobile phase B was acetonitrile containing 0.1% formic acid. The gradient started with mobile phase B at 20% and was held at 20% for 0.5 min with a flow rate of 0.3 mL/min, then increased to 100% over 0.5 minutes and held for 2.0 min, and finally returned back to 20% mobile phase B and allowed to equilibrate until 4.1min. […] The lower limit of quantitation (LLOQ) in plasma was 10 ng/mL.
A) ES2 cells stably transduced with the 4UbFL reporter plasmid were treated with compounds at indicated doses for 4 h. The cells were then washed, lysed and their luminescence measured by a luminometer after addition of luciferin. B) Female CD1 mice electroporated with 4UbFL plasmid in their leg muscle. After 48 h, the mice were injected with luciferin, imaged by IVIS for their basal bioluminescence and randomized into two groups of five. […] D) Up284 tissue distribution. […] Up284 levels in tissue samples were analyzed by HPLC. E) Up284 pharmacokinetics. […] Blood was collected at indicated time points thereafter and analyzed for Up284 levels by HPLC.
Up284 levels were analyzed in all major tissues (brain, colon, heart, kidney, liver, lung and spleen) by liquid chromatography–mass spectrometry (LC–MS/MS).

RPN13 = target: T1, RPN13 (Homo sapiens, UniProt Q16186); experiment: Cellular Thermal Shift Assay (CETSA), SKOV3 cells; type: binding; conditions: SKOV3, 10 μM, 30 min, vs DMSO
T1 construct: endogenous in cells; host or cells: SKOV3 cells
T1 sequence (Q16186 whole entry): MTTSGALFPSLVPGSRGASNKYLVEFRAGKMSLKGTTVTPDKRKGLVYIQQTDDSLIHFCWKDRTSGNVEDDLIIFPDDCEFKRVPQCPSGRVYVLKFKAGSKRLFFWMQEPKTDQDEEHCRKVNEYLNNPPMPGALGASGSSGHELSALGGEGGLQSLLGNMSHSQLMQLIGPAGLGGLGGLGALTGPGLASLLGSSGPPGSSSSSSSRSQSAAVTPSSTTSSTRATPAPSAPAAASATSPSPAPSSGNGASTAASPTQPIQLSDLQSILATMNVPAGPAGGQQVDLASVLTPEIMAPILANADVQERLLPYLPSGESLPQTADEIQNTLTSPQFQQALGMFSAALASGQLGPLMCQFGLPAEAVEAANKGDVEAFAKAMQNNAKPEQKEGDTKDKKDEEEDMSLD
Experimental: Cells were incubated in a thermal cycler (Biorad IQ5 Cycler) over a gradient of temperatures for 4 min, followed by incubation at 25°C for 3 min, then snap-frozen in liquid nitrogen and subjected to three freeze–thaw cycles. Samples were briefly vortexed and centrifuged at 16,000 x g for 20 min at 4°C. Cleared cell lysates were resolved in SDS–PAGE followed by immunoblotting for RPN13, GAPDH, RPN2 and USP14.
Cellular Thermal Shift Assay (CETSA) assesses thermal stabilization of proteins upon ligand binding and is used extensively to detect drug interactions by implementing a thermal shift in the cellular context. The assay involves drug treatment of cells, heating to denature and precipitate proteins in a thermocycler with a specified gradient of temperatures, cell lysis by freeze/thaw cycles, and the separation of cell debris and aggregates from the soluble protein fraction by centrifugation. Whereas unbound proteins denature and precipitate at elevated temperatures, ligand-bound proteins remain in solution. The proportion of individual proteins remaining in solution can be detected by quantitative Western blotting. […]. There was no impact on other control proteins tested, including a house keeping protein (GAPDH) and proteasome subunits (RPN2 and USP14). […]
Resuspended cells were aliquoted into PCR strips. […]

[2] = system: panel of cancer cell lines; experiment: MTT cytotoxicity, broad panel of cancer cell lines and normal cells (Fig 1B); conditions: 72 h
[3] = target: T2, 42kDa cellular protein (RPN13) (Homo sapiens, UniProt Q16186); experiment: Competition for RA190B binding in HeLa cell lysate; conditions: HeLa lysate pre-treated with compound (5 μM) 45 min 4°C, then RA190B (20 μM)
T2 construct: endogenous in cells; host or cells: HeLa cell lysate
T2 sequence (Q16186 2-407): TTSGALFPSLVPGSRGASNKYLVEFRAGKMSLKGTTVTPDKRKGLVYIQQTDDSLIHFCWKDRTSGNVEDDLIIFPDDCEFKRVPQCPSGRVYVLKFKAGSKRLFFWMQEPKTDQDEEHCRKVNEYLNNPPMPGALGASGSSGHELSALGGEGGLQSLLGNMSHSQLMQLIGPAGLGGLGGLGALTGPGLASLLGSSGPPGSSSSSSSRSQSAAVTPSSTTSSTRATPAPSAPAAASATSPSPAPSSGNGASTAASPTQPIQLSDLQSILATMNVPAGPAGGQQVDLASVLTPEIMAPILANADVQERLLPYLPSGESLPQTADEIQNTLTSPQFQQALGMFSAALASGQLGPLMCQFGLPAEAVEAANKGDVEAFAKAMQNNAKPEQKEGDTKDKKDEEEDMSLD
Experimental: NEM (1 mM) used as positive control.

[4] = Plasma Protein Binding (equilibrium dialysis); type: in vitro ADME, mouse
Experimental: The assay was performed in a multiple-use 96-well dialysis unit (HTD96b dialyzer). Each individual well unit consisted of 2 chambers separated by a vertically aligned dialysis membrane of predetermined pore size (MWCO 12–14 kDa). 120 μL of non-diluted plasma spiked with the compound (1 μM, final DMSO concentration 1%) was added to one chamber, and the same volume of PBS buffer pH 7.4 to the other chamber. The HTD96b dialyzer was covered with adhesive sealing film and incubated 5 h at 37°C while shaking at 100 rpm. For sample preparation, an aliquot of the contents of each chamber was mixed with the same volume of the blank opposite matrix. In order to define non-specific loss of the compound during this assay, a standard solution was created by mixing an aliquot of spiked plasma with blank buffer without dialysis. Two aliquots of the standard solution were incubated at 37°C, shaking at 100 rpm for 5 h (recovery samples). The other two aliquots were immediately diluted with acetonitrile and stored at 4°C until analysis (stability samples). All samples were diluted 5-fold with internal standard diluted in 100% methanol with subsequent plasma proteins sedimentation by centrifuging at 6000 rpm for 5 minutes. Supernatants were analyzed using LC-MS/MS. The percentage of plasma protein bound compound, recovery and stability were calculated using following equations.
Proteinbinding={(1−(arearatioinbuffer)/(arearatioinplasma)}.100%
Recovery={(arearatioinbuffer+peakareainplasma)/arearatioinrecoverysample}.100%
Stability={arearatioinrecoverysample/arearatioinstabilitysample}.100%

[5] = Plasma stability, human EDTA plasma; type: in vitro ADME; conditions: for % Drug Remaining, Plasma (Human EDTA): 10 μM, 37°C
HeLa cells = experiment: MTT cytotoxicity assay, HeLa cells, 72 h; type: cell-based; conditions: Homo sapiens, 72 h treatment
[6] = Microsomal stability, mouse liver microsomes; type: in vitro ADME; conditions: for % Drug Remaining NADPH Neg, Mouse Liver Microsomes / % Drug Remaining NADPH Pos, Mouse Liver Microsomes: 10 μM
Experimental: An incubation mixture with, and without NADPH-generating system, as well as a neat solution prepared without microsomes and NADPH-generating system was used. […] All reactions were initiated with the addition of Up284. Incubations were performed in glass tubes maintained at 37°C in a shaker bath. At 0, 30, and 60 minutes, 10 μL samples were withdrawn from the reaction mixture, and 0.5 mL of acetonitrile containing internal standard was added to each. Samples were vortex-mixed and subjected to centrifugation for 5 min at 1430 x g. A 10 μL aliquot of the supernatant was injected onto the LC-MS/MS instrument for qualitative analysis using a temperature-controlled autosampling device operating at 5°C.

[7] = system: PEA2, PACS and SKOV3 cells; experiment: Checkerboard combination cytotoxicity (MTT, Synergy finder); type: cell-based; conditions: 72 h
Experimental: Results are reported as mean ± standard deviation (s.d.). Statistical significance of differences was assessed by two-tailed Student’s t using Prism (V.5 Graphpad, San Diego, CA) with the level of significance set at p≤0.05. Survival was summarized using Kaplan–Meier methods and compared using log-rank tests. Combination indices (CI) were calculated using Synergy finder.
Cell viability was measured using MTT assay and data was processed using the Synergy Finder web application. B) Same as in A, PACS cell line derived from spontaneous mouse ovarian tumor [32], was used. (TIF) Click here for additional data file.
Cell viability was measured using MTT assay and data was processed using the Synergy Finder web application. (TIF) Click here for additional data file.

SKOV3 cells = experiment: MTT cytotoxicity assay, SKOV3 cells, 72 h; type: cell-based; conditions: Homo sapiens, SK-OV-3; 72 h treatment
ES2 cells = experiment: Seahorse assay (OCR, ECAR)
CHOP10 mRNA = experiment: Q-PCR of CHOP10 mRNA; conditions: 1 μM, 4 h
[8] = mouse plasma, 1.0 µM, individual incubations

N#Cc1ccc(/C=C2/C(=O)/C(=C/c3ccc(C#N)cc3)C23CCNCC3)cc1 [Up284]
plasma level at 24 h [1]: low
tissue levels (brain, colon, heart, kidney, liver, lung and spleen) ([1]; 24 h): accumulated in all the tissues, particularly the lungs
thermal stabilization of RPN13 (RPN13): stabilized
cytotoxicity against normal cells [2]: relatively spared normal cells
sensitivity of HCT116 cells regardless of Tp53 status [2]: similarly sensitive
sensitivity of RPMI8226 and ANBL6 and bortezomib-resistant (-V10R) lines [2]: similarly very sensitive
competition for RA190B binding to the 42KDa cellular protein [3]: competed
% of bound compound, mean ([4]; mouse plasma, 1.0 µM): 98%
Stability, % ([4]; mouse plasma, 1.0 µM, 5 h 37°C): 109%
% of bound compound [4, 8]: 98% and 97%
Recovery, % [4, 8]: 101%
recovery at 5 h, 1 µM ([4]; mouse, non-diluted plasma, pH 7.4, mouse plasma, individual incubations): 98%
% Drug Remaining, Plasma (Human EDTA) ([5]; 0 min): 100%
% Drug Remaining, Plasma (Human EDTA) ([5]; 30 min): 100%
% Drug Remaining, Plasma (Human EDTA) ([5]; 60 min): 90%
degradation in human plasma ([5]; after incubating for 1 hour): < 10%
IC50 (HeLa cells): 0.04 µM
additional degradation in the presence of NADPH, mouse liver microsomes [6]: ~ 10%
degradation in mouse liver microsomes without NADPH [6]: ~ 50%
% Drug Remaining NADPH Neg, Mouse Liver Microsomes ([6]; 0 min): 100%
% Drug Remaining NADPH Pos, Mouse Liver Microsomes ([6]; 0 min): 100%
% Drug Remaining NADPH Neg, Mouse Liver Microsomes ([6]; 30 min): 60%
% Drug Remaining NADPH Pos, Mouse Liver Microsomes ([6]; 30 min): 45%
% Drug Remaining NADPH Neg, Mouse Liver Microsomes ([6]; 60 min): 51%
% Drug Remaining NADPH Pos, Mouse Liver Microsomes ([6]; 60 min): 38%
cytotoxicity of Up284 and doxorubicin combination ([7]; SKOV3 cells): synergy
cytotoxicity of checkerboard combinations of Up284 and cisplatin ([7]; several cell lines including PEA2 and PACS): clear evidence of synergy
IC50 (SKOV3 cells): 0.071 µM
proton leakage (ES2 cells; ES2, 0.5 μM): did not impact
oxygen consumption rate (OCR), basal and FCCP-stimulated, and ATP production (ES2 cells; ES2, 0.5 μM, 12 h): significant decrease in OCR
extracellular acidification rate (ECAR) (ES2 cells; ES2, after 24 h treatment): trend for reduction
CHOP10 mRNA levels (CHOP10 mRNA): rapid upregulation
